According to the supplement of paper PMC3621838:
± gives the standard deviation of the averaged measurements.

Test system: HEK293 NF-kB-luciferase reporter cells
Experiment: NF-kB luciferase reporter activity, robust Z-score vs plate median (robust Z-score (log luminescence)); higher = stronger NF-kB reporter activation
Conditions: TNF treatment time 8.5 h, transfection time 72 h
Protocol: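 Primary screen of an Ambion Pre-miR miRNA mimic library (miRBase v8.0, 1.6 pmol/well, 384-well, duplicate) reverse-transfected into HEK293 cells stably expressing a 5x NF-kB firefly luciferase reporter. After 72 h the cells were treated with vehicle or TNF (40 ng/mL) for 8.5 h and luminescence was read (BriteLite). Raw luminescence was log-transformed and converted to a robust Z-score per plate: (x - plate median)/plate MAD. Sequence given is the mature miRNA strand of the double-stranded mimic.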

Row | Sequence | NF-kB luciferase reporter activity (TNF 0 ng/mL) | NF-kB luciferase reporter activity (TNF 40 ng/mL)
1 | GCCUGCUGGGGUGGAACCUGG | -0.469 ± 0.36 | 0.451 ± 0.051
2 | AAAAUGGUUCCCUUUAGAGUGUU | -1.7 ± 0.2 | -2.14 ± 0.057
3 | UGAAGGUCUACUGUGUGCCAG | -0.779 ± 1.1 | -1.55 ± 0.32
4 | UGAUUGGUACGUCUGUGGGUAGA | -0.152 ± 0.091 | -0.9703 ± 0.0044
5 | AGGGCCCCCCCUCAAUCCUGU | 1.69 ± 0.94 | 0.259 ± 0.1
6 | UCUCACACAGAAAUCGCACCCGUC | 0.103 ± 1.2 | 0.598 ± 0.025
7 | UCUACAGUGCACGUGUCU | -1.16 ± 0.34 | -0.417 ± 0.031
8 | CUCCAGAGGGAUGCACUUUCU | -1.38 ± 0.64 | -1.09 ± 0.051
9 | UGAGAACUGAAUUCCAUAGGCU | -1.29 ± 0.15 | 0.439 ± 0.12
10 | UGUCUGCCCGCAUGCCUGCCUCU | 1.07 ± 0.88 | 0.822 ± 0.046
11 | GAAGGCGCUUCCCUUUAGAGC | -0.845 ± 0.78 | -0.47 ± 0.02
12 | UUAUCAGAAUCUCCAGGGGUAC | -0.469 ± 0.36 | -0.796 ± 0.17
13 | UCCAGCAUCAGUGAUUUUGUUGA | 0.425 ± 0.23 | 0.858 ± 0.14
14 | AACUGGCCCUCAAAGUCCCGCUUU | 1.11 ± 0.46 | -0.934 ± 0.19
15 | UUCACAGGGAGGUGUCAUUUAU | 0.436 ± 0.13 | 0.0761 ± 0.082
16 | UCACUCCUCUCCUCCCGUCUUCU | 2.53 ± 0.2 | 1.87 ± 0.1
17 | UAUGUGGGAUGGUAAACCGCUU | 0.166 ± 0.72 | -1.21 ± 0.026
18 | AAAGUGCUUCCUUUUUGAGGG | -1.7 ± 0.2 | -0.497 ± 0.23
19 | UGAGGUAGGAGGUUGUAUAGU | -0.314 ± 0.58 | -0.881 ± 0.37

Row | Sequence | NF-kB luciferase reporter activity (TNF 0 ng/mL) | NF-kB luciferase reporter activity (TNF 40 ng/mL)
20 | UACUCAGGAGAGUGGCAAUCACA | 1.06 ± 0.93 | -0.306 ± 0.029
21 | AAAGUGCAUCUUUUUAGAGGAU | -0.977 ± 0.6 | -0.416 ± 0.079
22 | UAACACUGUCUGGUAAAGAUGG | 0.999 ± 0.35 | 1.415 ± 0.012
23 | CAAAGCGCUUCCCUUUGGAGC | 0.207 ± 0.18 | 0.305 ± 0.0055
24 | UGGAGAGAAAGGCAGUUC | 0.465 ± 0.4 | 0.268 ± 0.031
25 | GCCCCUGGGCCUAUCCUAGAA | 1.22 ± 0.89 | 0.489 ± 0.046
26 | UGGUUUACCGUCCCACAUACAU | -0.822 ± 0.38 | 0.367 ± 0.064
27 | GUCAUACACGGCUCUCCUCUCU | 0.54 ± 0.4 | -1.19 ± 0.14
28 | UCAGUCUCAUCUGCAAAGAAG | 2.97 ± 0.59 | 1.58 ± 0.083
29 | UAAGUGCUUCCAUGUUUGAGUGU | -1.48 ± 0.11 | -0.618 ± 0.12
30 | AACGCACUUCCCUUUAGAGUGU | 0.317 ± 0.45 | 0.826 ± 0.073
31 | GAAGUUGUUCGUGGUGGAUUCG | -0.0557 ± 0.33 | -0.602 ± 0.087
32 | UAAGUGCUUCCAUGUUUUGGUGA | -1.29 ± 0.15 | -0.801 ± 0.13
33 | UAUGUAAUAUGGUCCACAUCUU | -1.06 ± 0.48 | -1.342 ± 0.0044
34 | CAGCAGCAAUUCAUGUUUUGAA | 1.16 ± 0.43 | 0.65 ± 0.09
35 | AAGUGCUGUCAUAGCUGAGGUC | -0.706 ± 0.31 | -0.185 ± 0.21
36 | GUGCCGCCAUCUUUUGAGUGU | 0.919 ± 0.46 | -1.45 ± 0.12
37 | UAACAGUCUCCAGUCACGGCC | -0.0296 ± 0.44 | -0.939 ± 0.1
38 | UUUAACAUGGGGGUACCUGCUG | -0.207 ± 0.29 | 0.504 ± 0.055
